Test system: 966289-007-R4-J1-PDC complex spheroid viability
Assay: Anticancer human tumor 966289-007-R4-J1-PDC patient-derived pancreatic adenocarcinoma cell line growth inhibition [GQUAD]
Settings: for IC50: curve of first compound; for viability, T/C: stronger effect = lower value
Source text: DNA G-quadruplex Stabilizer Agents in Combinations in Complex Spheroids
A high-throughput screen of multi-cell type tumor spheroids was designed to identify active combinations of DNA G-quadruplex stabilizer agents and targeted small molecules. Complex spheroids include a stromal component modeled by human endothelial cells (HUVEC) and fibroblasts modeled by human mesenchymal stem cells (MSCs). The concentration ranges selected for each drug and investigational agent were based upon clinically achievable concentrations if the clinical Cmax of the agent was known.
Compounds. The drugs and investigational agents: pidnarulex (CX-5461; NSC782164), APTO-253 (NSC789042), BRACO-19 (NSC847499), peposertib (NSC802822), ceralasertib (NSC780249), elimusertib (NSC800525), camonsertib (NSC841442), AZD-1390 (NSC803789), olaparib (NSC753686), talazoparib (NSC767125), ART-558 (NSC835418), sotorasib (NSC818433), MRTX-1133 (NSC836407), SN-38 (NSC673596), topotecan (NSC609699), etoposide (NSC141540), doxorubicin (NSC123127), gemcitabine (NSC613327), 5-fluorouracil (NSC19893), paclitaxel (NSC125973), vemurafenib (NSC761431), panobinostat (NSC761190), R-306465 (JNJ-16241199; NSC773264), adavosertib (NSC754352), TP-3654 (NSC805149), carboplatin (NSC241240), KSQ-4279 (NSC840948), and staurosporine (NSC755774) were obtained from the National Cancer Institute (NCI) Developmental Therapeutics Program Chemical Repository (34). The FDA-approved anticancer drug set is available from the NCI Developmental Therapeutics Program. […] The stock solutions were prepared in dimethyl sulfoxide (DMSO, Sigma-Aldrich, St. Louis, MO, cat. D2650) at 800-fold the tested concentration and stored at -70 degrees C prior to their use. All drugs and investigational agents were tested over a range starting from a high concentration at or near the clinical Cmax and decreasing in half-log increments. If the clinical Cmax for an agent had not been determined, the highest concentration tested was 10 microM.
2.3 Cell Culture. All cells were maintained in an incubator at 37 degrees C and 5% CO2 with 95% humidity. The PDC lines were cultured according to standard operating procedures established by the NCI PDMR. All PDCs were thawed and cultured in Matrigel-coated flasks prepared with a working solution of 1X Ham's F-12 nutrient mix, without supplementation (Invitrogen, cat. 11765054), 100 U/mL penicillin-streptomycin (Invitrogen, cat. 15140122), and 2.5% Matrigel (Corning Inc., cat. 354248) for the first three passages. The 857933-349-R-J2-PDC line was cultured in 6C/Colon 1B media, which includes advanced DMEM/F-12 (Thermo Fisher Scientific, cat. 12634028), 10 mM HEPES (Thermo Fisher Scientific, cat. 15630080), 1X GlutaMAX supplement (Thermo Fisher Scientific, cat. 35050061), 0.1 mg/mL primocin (InvivoGen, cat. ant-pm-2), 10% defined fetal bovine serum, heat inactivated (HyClone Laboratories Inc., cat. SH30070.03HI), 50% L-WRN conditioned media (ATCC, cat. CRL-3276), 1.25 mM N-Acetyl-L-cysteine (Sigma-Aldrich, cat. A9165), 10 mM nicotinamide (Sigma-Aldrich, cat. N0636), 1X B-27 supplement (Thermo Fisher Scientific, cat. 17504044), 1X N-2 supplement (Thermo Fisher Scientific, cat. 17502048), 10 microM Y-27632 dihydrochloride (Tocris Bioscience, cat. 1254), and 50 ng/mL human EGF recombinant protein (Thermo Fisher Scientific, cat. PHG0311). The 485176-168-R4-J1-PDC line was cultured in Panc media, which includes all 6C/Colon 1B media components plus 100 ng/mL human FGF-10 (Thermo Fisher Scientific, cat. 100-26), 500 nM SB-431542 (Selleckchem, cat. S1067), and gastrin (Tocris, cat. 3006).
[…]

[1] = second compound 0.0316 µM, first compound 0.000999 µM
[2] = second compound 0.0316 µM, first compound 0.00316 µM
[3] = second compound 0.0316 µM, first compound 0.00999 µM
[4] = second compound 0.0316 µM, first compound 0.0316 µM
[5] = second compound 0.0316 µM, first compound 0.0999 µM
[6] = second compound 0.0316 µM, first compound 0.316 µM
[7] = second compound 0.1 µM, first compound 0.000999 µM
[8] = second compound 0.1 µM, first compound 0.00316 µM
[9] = second compound 0.1 µM, first compound 0.00999 µM
[10] = second compound 0.1 µM, first compound 0.0316 µM
[11] = second compound 0.1 µM, first compound 0.0999 µM
[12] = second compound 0.1 µM, first compound 0.316 µM
[13] = second compound 0.316 µM, first compound 0.000999 µM
[14] = second compound 0.316 µM, first compound 0.00316 µM
[15] = second compound 0.316 µM, first compound 0.00999 µM
[16] = second compound 0.316 µM, first compound 0.0316 µM
[17] = second compound 0.316 µM, first compound 0.0999 µM
[18] = second compound 0.316 µM, first compound 0.316 µM
[19] = second compound 1 µM, first compound 0.000999 µM
[20] = second compound 1 µM, first compound 0.00316 µM
[21] = second compound 1 µM, first compound 0.00999 µM
[22] = second compound 1 µM, first compound 0.0316 µM
[23] = second compound 1 µM, first compound 0.0999 µM
[24] = second compound 1 µM, first compound 0.316 µM
[25] = second compound 3.16 µM, first compound 0.000999 µM
[26] = second compound 3.16 µM, first compound 0.00316 µM
[27] = second compound 3.16 µM, first compound 0.00999 µM
[28] = second compound 3.16 µM, first compound 0.0316 µM
[29] = second compound 3.16 µM, first compound 0.0999 µM
[30] = second compound 3.16 µM, first compound 0.316 µM
[31] = second compound 10 µM, first compound 0.000999 µM
[32] = second compound 10 µM, first compound 0.00316 µM
[33] = second compound 10 µM, first compound 0.00999 µM
[34] = second compound 10 µM, first compound 0.0316 µM
[35] = second compound 10 µM, first compound 0.0999 µM
[36] = second compound 10 µM, first compound 0.316 µM
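Also: spheroids exposed to the agents for seven days before readout.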
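For viability, T/C in this document: percent viability relative to DMSO vehicle control wells taken as 100%.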

## CC[C@@]1(O)C(=O)OCc2c1cc1n(c2=O)Cc2cc3c(CN(C)C)c(O)ccc3nc2-1 + CN(C)c1ccc(Nc2c3ccc(NC(=O)CCN4CCCC4)cc3nc3cc(NC(=O)CCN4CCCC4)ccc23)cc1
Second compound 0.0316 µM
  IC50: 49.8 nM
Second compound 0.1 µM
  IC50: 50.3 nM
Second compound 0.316 µM
  IC50: 48.5 nM
Second compound 1 µM
  IC50: 53.3 nM
Second compound 3.16 µM
  IC50: 50.7 nM
Second compound 10 µM
  IC50: 24.8 nM
[1]
  viability, T/C: 100%
[2]
  viability, T/C: 96.9%
[3]
  viability, T/C: 92.9%
[4]
  viability, T/C: 82.1%
[5]
  viability, T/C: 0.84%
[6]
  viability, T/C: 0.56%
[7]
  viability, T/C: 102%
[8]
  viability, T/C: 98%
[9]
  viability, T/C: 103%
[10]
  viability, T/C: 83.5%
[11]
  viability, T/C: 0.82%
[12]
  viability, T/C: 0.54%
[13]
  viability, T/C: 101%
[14]
  viability, T/C: 96.1%
[15]
  viability, T/C: 107%
[16]
  viability, T/C: 79%
[17]
  viability, T/C: 0.87%
[18]
  viability, T/C: 0.83%
[19]
  viability, T/C: 92.1%
[20]
  viability, T/C: 96.5%
[21]
  viability, T/C: 102%
[22]
  viability, T/C: 91%
[23]
  viability, T/C: 0.86%
[24]
  viability, T/C: 0.61%
[25]
  viability, T/C: 96.1%
[26]
  viability, T/C: 98.2%
[27]
  viability, T/C: 110%
[28]
  viability, T/C: 84.3%
[29]
  viability, T/C: 1.25%
[30]
  viability, T/C: 0.55%
[31]
  viability, T/C: 104%
[32]
  viability, T/C: 89.2%
[33]
  viability, T/C: 110%
[34]
  viability, T/C: 36.2%
[35]
  viability, T/C: 0.73%
[36]
  viability, T/C: 0.68%

## CCc1c2c(nc3ccc(O)cc13)-c1cc3c(c(=O)n1C2)COC(=O)[C@]3(O)CC + CN(C)c1ccc(Nc2c3ccc(NC(=O)CCN4CCCC4)cc3nc3cc(NC(=O)CCN4CCCC4)ccc23)cc1
Second compound 0.0316 µM
  IC50: < 0.999 nM
Second compound 0.1 µM
  IC50: < 0.999 nM
Second compound 0.316 µM
  IC50: < 0.999 nM
Second compound 1 µM
  IC50: < 0.999 nM
Second compound 3.16 µM
  IC50: < 0.999 nM
Second compound 10 µM
  IC50: < 0.999 nM
[1]
  viability, T/C: 21.2%
[2]
  viability, T/C: 1.29%
[3]
  viability, T/C: 0.59%
[4]
  viability, T/C: 0.58%
[5]
  viability, T/C: 0.44%
[6]
  viability, T/C: 0.43%
[7]
  viability, T/C: 22.3%
[8]
  viability, T/C: 1.11%
[9]
  viability, T/C: 0.72%
[10]
  viability, T/C: 1.03%
[11]
  viability, T/C: 0.43%
[12]
  viability, T/C: 0.56%
[13]
  viability, T/C: 18.6%
[14]
  viability, T/C: 1.04%
[15]
  viability, T/C: 1.15%
[16]
  viability, T/C: 0.5%
[17]
  viability, T/C: 0.36%
[18]
  viability, T/C: 0.44%
[19]
  viability, T/C: 22.2%
[20]
  viability, T/C: 1.12%
[21]
  viability, T/C: 0.68%
[22]
  viability, T/C: 0.53%
[23]
  viability, T/C: 1.55%
[24]
  viability, T/C: 0.4%
[25]
  viability, T/C: 17.7%
[26]
  viability, T/C: 1.42%
[27]
  viability, T/C: 0.73%
[28]
  viability, T/C: 0.58%
[29]
  viability, T/C: 0.38%
[30]
  viability, T/C: 0.97%
[31]
  viability, T/C: 9.4%
[32]
  viability, T/C: 0.87%
[33]
  viability, T/C: 0.74%
[34]
  viability, T/C: 0.39%
[35]
  viability, T/C: 0.62%
[36]
  viability, T/C: 0.22%
